Entries after “also recorded” stand apart in the source; their conditions may differ.

A word on the IC50: it is the concentration that gives 50% inhibition. A low value points to higher potency.

Data set [1] concerns ROS formation in Neuro2a cells treated with 6-OHDA. Kind of data set: ROS level analysis in 6-OHDA-treated cells. Conditions: 10 µM; 6-OHDA 50 µM, 30 min. Type of data set: cell-based. The procedure:
(§1) Cell suspensions (1 × 10^3 cells/well) were incubated with compound solutions (10 µM) for 1 h. Then, 6-OHDA at a concentration of 50 µM was added in each well, and cells were incubated for 30 min. In other experiments, cells were incubated with PQ at a concentration of 500 µM for 30 min and 1 h. Cells incubated without 6-OHDA/PQ and compounds, and with 6-OHDA/PQ only, were used as positive and negative controls, respectively. To study ROS formation, 20 µL of 2,7-dichlorodihydrofluorescein diacetate solution (Molecular Probes, Eugene, OR, USA) was added to each well, such that the final concentration was […], and the microplate was incubated for an additional 10 min at 37 °C. The intensity of dichlorofluorescein fluorescence was measured with plate reader PHERAstar FS (BMG Labtech, Ortenberg, Germany) at λex = 485 nm, and λem = 518 nm. The data were processed by MARS Data Analysis v. 3.01R2 (BMG Labtech, Ortenberg, Germany). The results were presented as a percentage of positive control data.

For data set [2], the system named is ROS formation in Neuro2a cells treated with paraquat (PQ). The data set is described as follows: ROS level analysis in PQ-treated cells. Type of data set: cell-based. Conditions: added 1 h before PQ (500 µM). The procedure:
as §1, with “Cell suspensions (1 × 10^3 cells/well) were incubated with compound solutions (10 µM) for 1 h.” left out

The subject of data set [3] is Neuro2a cells treated with PQ. The data set is described as follows: Paraquat-induced in vitro model of Parkinson's disease, cell viability (MTT). Conditions: added 1 h before PQ (500 µM). The format is cell-based. As for the experimental part:
Neuroblastoma Neuro2a line cells (1 × 10^3 cells/well) were treated with compounds at concentrations of 1 and 10 µM for 1 h, and then 500 µM of paraquat (Sigma-Aldrich, St. Louis, MO, USA) was added to the neuroblastoma cell suspension. Cells incubated without paraquat and compounds, and with paraquat only, were used as positive and negative controls, respectively. The viability of cells was measured after 24 h using the MTT method. The results were presented as percent of positive control data.

The subject of data set [4] is neuroblastoma Neuro2a cells. The data set is described as follows: Cell viability (cytotoxicity) assay, MTT. The format is cell-based. Conditions: up to 100 µM. The procedure: (§2) The neuroblastoma cell line Neuro2a was purchased from ATCC. Cells were cultured in DMEM medium containing 10% fetal bovine serum (Biolot, St. Petersburg, Russia) and 1% penicillin/streptomycin (Invitrogen, Carlsbad, CA, USA). Cells were incubated at 37 °C in a humidified atmosphere containing 5% (v/v) CO2.
(§3) Cell suspension (1 × 10^3 cells/well) was incubated with different concentration of compounds for 24 h. After that, cell viability was determined using the MTT (3-(4,5-dimethylthiazol-2-yl)-2,5- diphenyltetrazolium bromide) method, according to the manufacturer’s instructions (Sigma-Aldrich, St. Louis, MO, USA). The results were presented as percent of control data, and concentration required for 50% inhibition of cell viability (IC50) was calculated.

The nature of data set [5]: Cell viability (cytotoxicity) assay, MTT. Type of data set: cell-based. Conditions: mouse, Neuro2a neuroblastoma cells; Neuro2a cells, 24 h, MTT. The procedure:
as §2, §3

The conditions of data set [6]: cited from earlier work.

`COc1cc(O)c(C)c2c1COC(C)C2` (stereo not drawn) [Compound 3, 8-methoxy-3,5-dimethylisochroman-6-ol]: the “Reduction of ROS level in 6-OHDA-treated cells” value in data set [1] turned out to be 45%. Besides, the “Effect on ROS formation in PQ-treated cells” value in data set [2] was “reduced ROS formation”. The “Effect on viability of PQ-treated cells” value in data set [3] is listed as “did not exhibit any protective effect”. Also, the “Cytotoxicity against Neuro2a cells” value in data set [4] is reported as “not cytotoxic; also recorded: non-cytotoxic”. Further, the IC50 at 24 h in data set [5] was > 100 µM. Also, the “DPPH Radical Scavenging % at 100 µM” value in data set [6] is 62.0 ± 4.6 [16] %.

The record behind these values is PMC6265791, “Neuroprotective Activity of Some Marine Fungal Metabolites in the 6-Hydroxydopamin- and Paraquat-Induced Parkinson’s Disease Models” (Marine Drugs, 2018).
